From ChEMBL document CHEMBL6182926, “Design, Synthesis, and Biological Activity Evaluation of Deuterated Diphenyl Azole Alcohol-Based CYP51 Inhibitors” (J Med Chem, 2025)
Converted amounts (≈) assume the structure as drawn.

Key:
Type in all cases: functional
[1] = test system: Candida albicans; assay: Antifungal activity against Candida albicans SC 5314 assessed as inhibition of visible growth
[2] = test system: Candida albicans; assay: Antifungal activity against Candida albicans CPCC 400616 assessed as inhibition of visible growth
[3] = test system: Candida tropicalis; assay: Antifungal activity against Candida tropicalis CGMCC 2.3739 assessed as inhibition of visible growth
[4] = test system: Candida parapsilosis; assay: Antifungal activity against Candida parapsilosis GIM 2.190 assessed as inhibition of visible growth; conditions: Lodderomyces parapsilosis
[5] = test system: Nakaseomyces glabratus; assay: Antifungal activity against Clinical isolate Candida glabrata assessed as inhibition of visible growth
[6] = test system: Pichia kudriavzevii; assay: Antifungal activity against Candida krusei AS 2.1045 assessed as inhibition of visible growth
[7] = test system: Cryptococcus neoformans; assay: Antifungal activity against Cryptococcus neoformans CGMCC 2.3161 assessed as inhibition of visible growth

SMILES | MIC80 [1] [µg/mL] | MIC80 [2] [µg/mL] | MIC80 [3] [µg/mL] | MIC80 [4] [µg/mL] | MIC80 [5] [µg/mL] | MIC80 [6] [µg/mL] | MIC80 [7] [µg/mL]
CN(Cc1ccc(-c2ccccc2Cl)cn1)CC(O)(Cn1cncn1)c1ccc(F)cc1F (stereo not drawn) | 0.025 (≈ 0.0532 µM) | 0.1 (≈ 0.213 µM) | 0.012 (≈ 0.0255 µM) | 0.025 (≈ 0.0532 µM) | 0.8 (≈ 1.7 µM) | 0.4 (≈ 0.851 µM) | 0.1 (≈ 0.213 µM)
CN(Cc1ccc(-c2ccc(OC(F)(F)F)cc2)cc1)CC(O)(Cn1cncn1)c1ccc(F)cc1F (stereo not drawn) | 0.012 (≈ 0.0231 µM) | 0.012 (≈ 0.0231 µM) | 0.012 (≈ 0.0231 µM) | 0.006 (≈ 0.0116 µM) | 0.025 (≈ 0.0482 µM) | 0.025 (≈ 0.0482 µM) | 0.012 (≈ 0.0231 µM)
CN(Cc1ccc(-c2ccccc2)cn1)CC(O)(Cn1cncn1)c1ccc(F)cc1F (stereo not drawn) | 0.012 (≈ 0.0276 µM) | 0.025 (≈ 0.0574 µM) | 0.025 (≈ 0.0574 µM) | 0.025 (≈ 0.0574 µM) | 0.8 (≈ 1.84 µM) | 0.2 (≈ 0.459 µM) | 0.1 (≈ 0.23 µM)
CC(C)c1ccc(-c2ccc(CN(C)CC(O)(Cn3cncn3)c3ccc(F)cc3F)nc2)cc1 (stereo not drawn) | 0.012 (≈ 0.0251 µM) | 0.012 (≈ 0.0251 µM) | 0.012 (≈ 0.0251 µM) | 0.012 (≈ 0.0251 µM) | 0.2 (≈ 0.419 µM) | 0.1 (≈ 0.209 µM) | 0.025 (≈ 0.0523 µM)
CN(Cc1ccc(-c2ccccc2F)cn1)CC(O)(Cn1cncn1)c1ccc(F)cc1F (stereo not drawn) | 0.012 (≈ 0.0265 µM) | 0.025 (≈ 0.0551 µM) | 0.012 (≈ 0.0265 µM) | 0.012 (≈ 0.0265 µM) | 0.8 (≈ 1.76 µM) | 0.4 (≈ 0.882 µM) | 0.1 (≈ 0.221 µM)
CN(Cc1ccc(-c2ccc(C(F)(F)F)cc2)cc1)CC(O)(Cn1cncn1)c1ccc(F)cc1F (stereo not drawn) | 0.012 (≈ 0.0239 µM) | 0.012 (≈ 0.0239 µM) | 0.012 (≈ 0.0239 µM) | 0.006 (≈ 0.0119 µM) | 0.025 (≈ 0.0498 µM) | 0.025 (≈ 0.0498 µM) | 0.05 (≈ 0.0995 µM)
CN(Cc1ccc(-c2cccc(F)c2)cn1)CC(O)(Cn1cncn1)c1ccc(F)cc1F (stereo not drawn) | 0.025 (≈ 0.0551 µM) | 0.025 (≈ 0.0551 µM) | 0.012 (≈ 0.0265 µM) | 0.012 (≈ 0.0265 µM) | 0.8 (≈ 1.76 µM) | 0.2 (≈ 0.441 µM) | 0.05 (≈ 0.11 µM)
C[C@@H](N(C)Cc1ccc(-c2ccc(Cl)cc2)cc1)[C@](O)(Cn1cncn1)c1ccc(F)cc1F | 0.006 (≈ 0.0124 µM) | 0.006 (≈ 0.0124 µM) | 0.006 (≈ 0.0124 µM) | 0.006 (≈ 0.0124 µM) | 0.012 (≈ 0.0248 µM) | 0.012 (≈ 0.0248 µM) | 0.012 (≈ 0.0248 µM)
CN(Cc1cnc(-c2ccc(OC(F)(F)F)cc2)s1)CC(O)(Cn1cncn1)c1ccc(F)cc1F (stereo not drawn) | 0.025 (≈ 0.0476 µM) | 0.025 (≈ 0.0476 µM) | 0.006 (≈ 0.0114 µM) | 0.05 (≈ 0.0951 µM) | 0.2 (≈ 0.381 µM) | 0.1 (≈ 0.19 µM) | 0.1 (≈ 0.19 µM)

The next lines start with the values.

MIC80 [1] [µg/mL] | MIC80 [2] [µg/mL] | MIC80 [3] [µg/mL] | MIC80 [4] [µg/mL] | MIC80 [5] [µg/mL] | MIC80 [6] [µg/mL] | MIC80 [7] [µg/mL] | SMILES
0.012 (≈ 0.0252 µM) | 0.012 (≈ 0.0252 µM) | 0.025 (≈ 0.0525 µM) | 0.012 (≈ 0.0252 µM) | 0.4 (≈ 0.84 µM) | 0.2 (≈ 0.42 µM) | 0.8 (≈ 1.68 µM) | CN(Cc1nc(-c2ccc(Cl)cc2)cs1)CC(O)(Cn1cncn1)c1ccc(F)cc1F (stereo not drawn)
0.2 (≈ 0.42 µM) | 0.2 (≈ 0.42 µM) | 0.4 (≈ 0.84 µM) | 0.4 (≈ 0.84 µM) | 1.6 (≈ 3.36 µM) | 1.6 (≈ 3.36 µM) | 1.6 (≈ 3.36 µM) | CN(Cc1cnc(-c2ccc(Cl)cc2)s1)CC(O)(Cn1cncn1)c1ccc(F)cc1F (stereo not drawn)
0.006 (≈ 0.0114 µM) | 0.012 (≈ 0.0229 µM) | 0.006 (≈ 0.0114 µM) | 0.006 (≈ 0.0114 µM) | 0.1 (≈ 0.191 µM) | 0.05 (≈ 0.0953 µM) | 0.05 (≈ 0.0953 µM) | CN(Cc1ccc(-c2ccc(OC(F)(F)F)cc2)s1)CC(O)(Cn1cncn1)c1ccc(F)cc1F (stereo not drawn)
0.012 (≈ 0.0236 µM) | 0.006 (≈ 0.0118 µM) | 0.006 (≈ 0.0118 µM) | 0.006 (≈ 0.0118 µM) | 0.4 (≈ 0.787 µM) | 0.1 (≈ 0.197 µM) | 0.1 (≈ 0.197 µM) | CN(Cc1ccc(-c2ccc(C(F)(F)F)cc2)s1)CC(O)(Cn1cncn1)c1ccc(F)cc1F (stereo not drawn)
0.006 (≈ 0.0123 µM) | 0.006 (≈ 0.0123 µM) | 0.006 (≈ 0.0123 µM) | 0.006 (≈ 0.0123 µM) | 0.025 (≈ 0.0513 µM) | 0.025 (≈ 0.0513 µM) | 0.012 (≈ 0.0246 µM) | CN(Cc1ccc(-c2ccc(Cl)cc2)c(F)c1)CC(O)(Cn1cncn1)c1ccc(F)cc1F (stereo not drawn)
0.006 (≈ 0.0127 µM) | 0.006 (≈ 0.0127 µM) | 0.006 (≈ 0.0127 µM) | 0.006 (≈ 0.0127 µM) | 0.012 (≈ 0.0254 µM) | 0.012 (≈ 0.0254 µM) | 0.012 (≈ 0.0254 µM) | [2H]C([2H])([2H])N(Cc1ccc(-c2ccc(Cl)cc2)cc1)CC(O)(Cn1cncn1)c1ccc(F)cc1F (stereo not drawn)
0.006 (≈ 0.0126 µM) | 0.012 (≈ 0.0253 µM) | 0.006 (≈ 0.0126 µM) | 0.006 (≈ 0.0126 µM) | 0.2 (≈ 0.421 µM) | 0.05 (≈ 0.105 µM) | 0.1 (≈ 0.211 µM) | CN(Cc1ccc(-c2ccc(Cl)cc2)s1)CC(O)(Cn1cncn1)c1ccc(F)cc1F (stereo not drawn)
0.012 (≈ 0.0265 µM) | 0.012 (≈ 0.0265 µM) | 0.012 (≈ 0.0265 µM) | 0.012 (≈ 0.0265 µM) | 0.4 (≈ 0.882 µM) | 0.05 (≈ 0.11 µM) | 0.1 (≈ 0.221 µM) | CN(Cc1ccc(-c2ccc(F)cc2)cn1)CC(O)(Cn1cncn1)c1ccc(F)cc1F (stereo not drawn)
0.012 (≈ 0.0255 µM) | 0.012 (≈ 0.0255 µM) | 0.012 (≈ 0.0255 µM) | 0.006 (≈ 0.0128 µM) | 0.05 (≈ 0.106 µM) | 0.05 (≈ 0.106 µM) | 0.025 (≈ 0.0532 µM) | CN(Cc1ccc(-c2ccc(Cl)cc2)cn1)CC(O)(Cn1cncn1)c1ccc(F)cc1F (stereo not drawn)
0.006 (≈ 0.0123 µM) | 0.006 (≈ 0.0123 µM) | 0.006 (≈ 0.0123 µM) | 0.006 (≈ 0.0123 µM) | 0.025 (≈ 0.0513 µM) | 0.012 (≈ 0.0246 µM) | 0.012 (≈ 0.0246 µM) | CN(Cc1ccc(-c2ccc(Cl)cc2F)cc1)CC(O)(Cn1cncn1)c1ccc(F)cc1F (stereo not drawn)
